One test concerns MDA-MB-231. As to the kind of experiment: Cytotoxicity against human MDA-MB-231 cells assessed as reduction in cell viability after 48 hrs by MTT assay. It counts as functional, cell-based. Conditions: MDA-MB-231, 48 h. (Tetrazolium dyes change colour on reduction, which living cells bring about.)
For test [1], the system named is MCF7. As to the kind of experiment: Cytotoxicity against human MCF7 cells assessed as reduction in cell viability after 48 hrs by MTT assay. It counts as functional, cell-based. The conditions noted are these: MCF7, 48 h.
The subject of the next test is T47D. Nature of the test: Cytotoxicity against human T47D cells assessed as reduction in cell viability after 48 hrs by MTT assay. It counts as functional, cell-based.
Test [2] deals with P388. Nature of the test: Anticancer activity against doxorubicin resistant mouse P388 cells. It counts as functional, cell-based.
The subject of test [3] is A549. Nature of the test: Cytotoxicity against human A549 cells assessed as reduction in cell viability. It counts as functional, cell-based.
Test [4] concerns P388. Nature of the test: Anticancer activity against mouse P388 cells. It counts as functional, cell-based.
In test [5] the test system is Lewis lung carcinoma cell line. As to the kind of experiment: Anticancer activity against mouse LLC cells. It counts as functional, cell-based.
Test [6] relates to HT-29. As to the kind of experiment: Anticancer activity against human HT-29 cells. It counts as functional, cell-based.
Test [7] deals with P388. Nature of the test: Cytotoxicity against doxorubicin resistant mouse P388 cells assessed as reduction in cell viability. It counts as functional, cell-based.
Test [8] concerns HT-29. Nature of the test: Cytotoxicity against human HT-29 cells assessed as reduction in cell viability. It counts as functional, cell-based.
A further test has as its system HCT-8. Nature of the test: Anticancer activity against human HCT8 cells. It counts as functional, cell-based.
For test [9], the system named is B16-F10. Nature of the test: Cytotoxicity against mouse B16F10 cells assessed as reduction in cell viability. It counts as functional, cell-based.
Test [10] deals with P388. As to the kind of experiment: Cytotoxicity against mouse P388 cells assessed as reduction in cell viability. It counts as functional, cell-based.
Test [11] deals with A549. Nature of the test: Anticancer activity against human A549 cells. It counts as functional, cell-based.
The subject of test [12] is B16-F10. Nature of the test: Anticancer activity against mouse B16F10 cells. It counts as functional, cell-based.
In test [13] the test system is MCF7. As to the kind of experiment: Anticancer activity against human MCF7 cells. It counts as functional, cell-based.
The test system of the next test is SK-MEL3. As to the kind of experiment: Cytotoxicity against human SK-MEL-3 cells assessed as reduction in cell viability after 72 hrs by MTT assay. It counts as functional, cell-based. Conditions: SK-MEL3, 72 h.
The next test concerns A 172. As to the kind of experiment: Cytotoxicity against human A172 cells assessed as reduction in cell viability after 72 hrs by MTT assay. It counts as functional, cell-based. Conditions: A 172, 72 h.
The next test relates to ACHN. As to the kind of experiment: Cytotoxicity against human ACHN cells assessed as reduction in cell viability after 72 hrs by MTT assay. It counts as functional, cell-based.
Test [14] deals with A549. Nature of the test: Cytotoxicity against human A549 cells assessed as reduction in cell viability after 72 hrs by MTT assay. It counts as functional, cell-based. The conditions noted are these: A549, 72 h.
A further test has as its system KB. Nature of the test: Cytotoxicity against human KB cells assessed as reduction in cell viability after 72 hrs by MTT assay. It counts as functional, cell-based.
The test system of another test is A2780. As to the kind of experiment: Cytotoxicity against human A2780 cells assessed as reduction in cell viability after 72 hrs by MTT assay. It counts as functional, cell-based. Conditions: A2780, 72 h.
In test [15] the test system is MCF7. As to the kind of experiment: Cytotoxicity against human MCF7 cells assessed as reduction in cell viability after 72 hrs by MTT assay. It counts as functional, cell-based. The conditions noted are these: MCF7, 72 h.
In a further test the test system is NCI-H460. Nature of the test: Growth inhibition of human NCI-H460 cells. Conditions: pooled result: one value given for 3 cell lines, strains, targets or settings. It counts as functional.

The structures appear in SMILES notation. ≈ marks a conversion by molar mass, not a printed value.

Consider `COc1cc(Cn2cc(Cn3c4ccccc4c(=O)c4cc(Cl)ccc43)nn2)cc(OC)c1OC`, for which the IC50 in the test with MDA-MB-231, in the test with MCF7 [1] and in the test with T47D was more than 100 µM throughout.

For the molecule `Cc1ccccc1NC1CCN(C2C(F)=Cc3c4n(cc(C(=O)O)c3=O)-c3ccccc3OC42)C1` (stereo not given), the IC50 (in general, the concentration needed to halve the response being measured) lay within 0.03 to 0.49 µM in the test with P388 [2]; 0.011 to 0.59 µg/mL (≈ 0.0232 to 1.25 µM) in the test with A549 [3]; 0.03 to 0.49 µM in the test with P388 [4]; 0.03 to 0.49 µM in test [5]; 0.03 to 0.49 µM in the test with HT-29 [6]; 0.011 to 0.59 µg/mL (≈ 0.0232 to 1.25 µM) in the test on P388 [7]. Besides, the IC50 in the test with HT-29 [8] was 0.011 to 0.59 µg/mL (≈ 0.0232 to 1.25 µM); in the test on HCT-8, 0.03 to 0.49 µM; with B16-F10 [9] it was 0.011 to 0.59 µg/mL (≈ 0.0232 to 1.25 µM); with P388 [10] it was 0.011 to 0.59 µg/mL (≈ 0.0232 to 1.25 µM); with A549 [11], 0.03 to 0.49 µM; in the test on B16-F10 [12], 0.03 to 0.49 µM. Also, the IC50 with MCF7 [13] was 0.03 to 0.49 µM.

Consider `COc1cc(Cn2cc(Cn3c4ccccc4c(=O)c4cc(Br)ccc43)nn2)cc(OC)c1OC`, for which the IC50 in the test on MDA-MB-231, in the test with MCF7 [1] and in the test on T47D was more than 100 µM each time.

Regarding `COc1cc(Cn2cc(Cn3c4ccccc4c(=O)c4ccccc43)nn2)cc(OC)c1OC`, the IC50 in the test with MDA-MB-231, with MCF7 [1] and with T47D was more than 100 µM each time.

In the case of `COc1cc(Cn2cc(Cn3c4ccccc4c(=O)c4cccc(F)c43)nn2)cc(OC)c1OC`, the IC50 with MDA-MB-231, in the test with MCF7 [1] and in the test on T47D was more than 100 µM in each case.

Turning to `CCn1cc(C(=O)O)c(=O)c2cc(F)c(N3CCN(C/C(=N/OCc4ccc(Cl)cc4)c4ccco4)CC3)cc21`, the IC50 in the test on SK-MEL3, in the test on A 172, in the test on ACHN, in the test with A549 [14], in the test on KB and in the test with A2780 was not above 10 µM each time. The IC50 in the test on MCF7 [15] is not above 10 µM.

Regarding `CCn1cc(C(=O)O)c(=O)c2cc(F)c(N3CCN(C/C(=N/O)c4ccco4)CC3)cc21`, the IC50 in the test with SK-MEL3, with A 172, in the test on ACHN, with A549 [14], in the test with KB and in the test with A2780 was more than 100 µM each time. The IC50 with MCF7 [15] is more than 100 µM.

Take `CC(C)(C)c1cccc(NC2CCN(C3C(F)=Cc4c5n(cc(C(=O)O)c4=O)-c4ccccc4OC53)C2)c1` (stereo not given): the IC50 in the test on P388 [2] lay in the range of 0.03 to 0.49 µM; in the test with A549 [3], 0.011 to 0.59 µg/mL (≈ 0.0213 to 1.14 µM); in the test with P388 [4], 0.03 to 0.49 µM; in test [5], 0.03 to 0.49 µM; in the test on HT-29 [6], 0.03 to 0.49 µM; in the test on P388 [7], 0.011 to 0.59 µg/mL (≈ 0.0213 to 1.14 µM). Further, the IC50 in the test on HT-29 [8] was in the range of 0.011 to 0.59 µg/mL (≈ 0.0213 to 1.14 µM); in the test with HCT-8 it was 0.03 to 0.49 µM; in the test with B16-F10 [9] it was 0.011 to 0.59 µg/mL (≈ 0.0213 to 1.14 µM); with P388 [10], 0.011 to 0.59 µg/mL (≈ 0.0213 to 1.14 µM); with A549 [11] it was 0.03 to 0.49 µM; in the test on B16-F10 [12], 0.03 to 0.49 µM. Besides, the IC50 in the test with MCF7 [13] lay in the range of 0.03 to 0.49 µM.

For the molecule `COc1ccc(NC2CCN(C3C(F)=Cc4c5n(cc(C(=O)O)c4=O)-c4ccccc4OC53)C2)cc1` (stereo not given), the IC50 is 0.03 to 0.49 µM in the test on P388 [2]; 0.011 to 0.59 µg/mL (≈ 0.0225 to 1.21 µM) with A549 [3]; 0.03 to 0.49 µM in the test on P388 [4]; 0.03 to 0.49 µM in [5]; 0.03 to 0.49 µM in the test with HT-29 [6]; 0.011 to 0.59 µg/mL (≈ 0.0225 to 1.21 µM) in the test with P388 [7]. The IC50 in the test with HT-29 [8] fell in the range of 0.011 to 0.59 µg/mL (≈ 0.0225 to 1.21 µM); in the test with HCT-8, 0.03 to 0.49 µM; in the test with B16-F10 [9], 0.011 to 0.59 µg/mL (≈ 0.0225 to 1.21 µM); in the test on P388 [10] it was 0.011 to 0.59 µg/mL (≈ 0.0225 to 1.21 µM); in the test on A549 [11], 0.03 to 0.49 µM; in the test on B16-F10 [12], 0.03 to 0.49 µM. Moreover, in the test on MCF7 [13], the IC50 is 0.03 to 0.49 µM.

Consider `CCc1ccc2c(c1)c(=O)c1ccccc1n2Cc1cn(Cc2cc(OC)c(OC)c(OC)c2)nn1`, for which the IC50 in the test on MDA-MB-231, in the test on MCF7 [1] and in the test on T47D was more than 100 µM each time.

In the case of `COc1ccc2[nH]c(=O)c3c4ccccc4oc3c2c1`, the GI50 (as a rule, the concentration at which growth is held to half of that of the control) with NCI-H460 was in the range of 10.7 to 53.7 µM.

On to `Cc1ccc(NC2CCN(C3C(F)=Cc4c5n(cc(C(=O)O)c4=O)-c4ccccc4OC53)C2)cc1` (stereo not given), for which the 50% inhibitory concentration (IC50) was in the range of 0.03 to 0.49 µM with P388 [2]; 0.011 to 0.59 µg/mL (≈ 0.0232 to 1.25 µM) in the test with A549 [3]; 0.03 to 0.49 µM in the test with P388 [4]; 0.03 to 0.49 µM in [5]; 0.03 to 0.49 µM in the test with HT-29 [6]; 0.011 to 0.59 µg/mL (≈ 0.0232 to 1.25 µM) in the test on P388 [7]. Moreover, the IC50 in the test on HT-29 [8] was in the range of 0.011 to 0.59 µg/mL (≈ 0.0232 to 1.25 µM); with HCT-8, 0.03 to 0.49 µM; in the test on B16-F10 [9], 0.011 to 0.59 µg/mL (≈ 0.0232 to 1.25 µM); in the test on P388 [10], 0.011 to 0.59 µg/mL (≈ 0.0232 to 1.25 µM); with A549 [11], 0.03 to 0.49 µM; with B16-F10 [12] it was 0.03 to 0.49 µM. The molecule also had an IC50 in the test on MCF7 [13] of 0.03 to 0.49 µM.

For `O=C(O)c1cn2c3c(c1=O)C=C(F)C(N1CCC(Nc4ccccc4)C1)C3Oc1ccccc1-2` (stereo not given), the IC50 in the test on P388 [2] fell in the range of 0.03 to 0.49 µM; in the test on A549 [3] it was 0.011 to 0.59 µg/mL (≈ 0.0239 to 1.28 µM); in the test on P388 [4] it was 0.03 to 0.49 µM; in test [5], 0.03 to 0.49 µM; in the test on HT-29 [6] it was 0.03 to 0.49 µM; in the test on P388 [7], 0.011 to 0.59 µg/mL (≈ 0.0239 to 1.28 µM). Also, the IC50 fell in the range of 0.011 to 0.59 µg/mL (≈ 0.0239 to 1.28 µM) in the test with HT-29 [8]; 0.03 to 0.49 µM with HCT-8; 0.011 to 0.59 µg/mL (≈ 0.0239 to 1.28 µM) with B16-F10 [9]; 0.011 to 0.59 µg/mL (≈ 0.0239 to 1.28 µM) in the test on P388 [10]; 0.03 to 0.49 µM with A549 [11]; 0.03 to 0.49 µM in the test on B16-F10 [12]. The IC50 with MCF7 [13] is 0.03 to 0.49 µM.

The values above are taken from ChEMBL document CHEMBL4613209, “Quinolone hybrids and their anti-cancer activities: An overview” (Eur J Med Chem, 2019).
